This passage reports GI50 and TGI results from PubChem BioAssay (NCI).

The structures appear in SMILES notation.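 Cultured in 96-well plates, cells were exposed to test compound for 48 hours across five concentrations. The concentration for 50% growth inhibition is given as GI50. TGI is the concentration that stops growth completely.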 Bounds are passed on as bounds.

Among the test systems are SNB-75 CNS; OVCAR-3 ovarian; HT29 colon; TK-10 renal; BT-549 breast; M14 melanoma; NCI-H522 lung; SF-295 CNS; HCT-15 colon; HCC-2998 colon.
Common to all, as to experiment: DTP human tumour cell line panel, 48 h

By GI50 is commonly meant the concentration at which growth is held to half of that of the control. One may read the TGI as the concentration giving total growth inhibition. High values mean less potent growth arrest, low ones more potent growth arrest.

Regarding `N#C/C(=C1C=C/C(=N\O)C(Cl)=C\1)c1ccccc1`, the GI50 in the assay on SNB-75 CNS was 3.5 µM; in the assay on OVCAR-3 ovarian it was 3.31 µM; in the assay on HT29 colon, 3.35 µM; in the assay with TK-10 renal, 5.12 µM; in the assay on BT-549 breast, 4.36 µM; in the assay with M14 melanoma, 3.2 µM. For the same compound, the GI50 is 1.98 µM in the assay on NCI-H522 lung, 3.74 µM in the assay with SF-295 CNS, 2.34 µM in the assay with HCT-15 colon and 4.27 µM in the assay with HCC-2998 colon. The TGI was 20.5 µM in the assay on SNB-75 CNS; 17 µM in the assay on OVCAR-3 ovarian; 10.9 µM in the assay on HT29 colon; 16.4 µM in the assay with TK-10 renal; 16.2 µM in the assay on BT-549 breast; 14.2 µM with M14 melanoma. Also, the TGI is 7.92 µM in the assay with NCI-H522 lung, above 100 µM in the assay on SF-295 CNS, 11 µM with HCT-15 colon and 15.8 µM with HCC-2998 colon.

`CC(=O)OC1Oc2cc(C)c(C)cc2-c2oc(=O)c(-c3ccc(F)cc3)cc21` (stereo not given): the GI50 is 4.34 µM in the assay with SNB-75 CNS; 3.99 µM with OVCAR-3 ovarian; 2.7 µM in the assay with HT29 colon; 17.1 µM in the assay with TK-10 renal; 7.76 µM in the assay with BT-549 breast; 3.99 µM in the assay with M14 melanoma. For the same compound, the GI50 is 4.53 µM with NCI-H522 lung, 3.92 µM with SF-295 CNS, 2.68 µM in the assay with HCT-15 colon and 3.97 µM in the assay on HCC-2998 colon. In addition, the TGI in the assay on SNB-75 CNS is 80.8 µM; in the assay on OVCAR-3 ovarian it was 16.6 µM; with HT29 colon, 12.1 µM; in the assay on TK-10 renal it was 71.4 µM; in the assay on BT-549 breast it was 45.9 µM; with M14 melanoma, above 100 µM. Also, the TGI in the assay on NCI-H522 lung was 19 µM; in the assay with SF-295 CNS, above 100 µM; in the assay on HCT-15 colon, 19.1 µM; in the assay on HCC-2998 colon it was 28.2 µM.

As to `COc1ccc(OC)c(/C=C2\COc3ccc(O)c(O)c3C2=O)c1`, the GI50 in the assay with SNB-75 CNS is 3.72 µM; with OVCAR-3 ovarian, 1.36 µM; in the assay with HT29 colon it was 2.68 µM; with TK-10 renal it was 4 µM; with BT-549 breast, 1.71 µM; in the assay with M14 melanoma it was 2.09 µM. The GI50 with NCI-H522 lung is 0.219 µM; with SF-295 CNS, 4.29 µM; in the assay on HCT-15 colon, 1.3 µM; in the assay on HCC-2998 colon it was 1.88 µM. In addition, the TGI in the assay with SNB-75 CNS was 18.3 µM; with OVCAR-3 ovarian, 5.31 µM; in the assay with HT29 colon, 6.6 µM; in the assay on TK-10 renal, 14.3 µM; in the assay with BT-549 breast, 6.71 µM; in the assay with M14 melanoma, 6.9 µM. The TGI was 0.58 µM in the assay on NCI-H522 lung, 15.5 µM in the assay on SF-295 CNS, 6.5 µM with HCT-15 colon and 3.48 µM in the assay on HCC-2998 colon.

Take `COc1ccc2c(c1)/C(=C\c1c(Cl)n(C)c3ccccc13)C(=O)N2`: the GI50 is 1.67 µM with SNB-75 CNS; 0.633 µM in the assay on OVCAR-3 ovarian; 0.574 µM in the assay with HT29 colon; 9.26 µM in the assay on TK-10 renal; 1.29 µM in the assay on BT-549 breast; 1.61 µM in the assay on M14 melanoma. Further, the GI50 in the assay with NCI-H522 lung is 0.726 µM; in the assay on SF-295 CNS, 0.981 µM; with HCT-15 colon it was 0.456 µM; in the assay with HCC-2998 colon it was 0.306 µM. Also, the TGI is 23.6 µM with SNB-75 CNS; 1.91 µM in the assay on OVCAR-3 ovarian; above 100 µM in the assay with HT29 colon; 34.2 µM in the assay on TK-10 renal; 16.4 µM in the assay on BT-549 breast; 23.8 µM in the assay with M14 melanoma. The TGI in the assay with NCI-H522 lung stood at 7.14 µM; in the assay with SF-295 CNS, 6.66 µM; in the assay with HCT-15 colon, 8.17 µM; in the assay on HCC-2998 colon, 1.08 µM.

As to `CCN(CC)CCCC(Cc1ccccc1)Nc1c2ccc(Cl)cc2nc2ccc(OC)cc12` (stereo not given), the GI50 in the assay with SNB-75 CNS is 1.62 µM; in the assay with OVCAR-3 ovarian, 2.88 µM; in the assay on HT29 colon it was 1.41 µM; in the assay on TK-10 renal it was 1.68 µM; with BT-549 breast, 2.2 µM; with M14 melanoma, 1.82 µM. For the same compound, the GI50 with NCI-H522 lung is 1.81 µM; in the assay on SF-295 CNS it was 1.86 µM; in the assay with HCT-15 colon it was 1.88 µM; in the assay with HCC-2998 colon, 1.61 µM. Besides, the TGI worked out at 3.65 µM in the assay with SNB-75 CNS; 12.2 µM with OVCAR-3 ovarian; 3.57 µM in the assay on HT29 colon; 3.31 µM in the assay with TK-10 renal; 5.17 µM with BT-549 breast; 3.51 µM in the assay with M14 melanoma. Moreover, the TGI was found to be 3.57 µM in the assay on NCI-H522 lung, 3.55 µM in the assay with SF-295 CNS, 4.72 µM in the assay with HCT-15 colon and 3.3 µM in the assay with HCC-2998 colon.

For `O=S(=O)(CCNCc1ccc(-c2ccc3ncnc(Nc4ccc(OCc5cccc(F)c5)c(Cl)c4)c3c2)o1)c1ccccc1`, the GI50 was above 25 µM with SNB-75 CNS; above 25 µM in the assay with OVCAR-3 ovarian; above 25 µM in the assay with HT29 colon; above 13.2 µM in the assay with TK-10 renal; above 25 µM in the assay on BT-549 breast; above 25 µM in the assay with M14 melanoma. For the same compound, the GI50 in the assay on NCI-H522 lung is above 19.5 µM; in the assay on SF-295 CNS, above 25 µM; in the assay on HCT-15 colon, above 25 µM; in the assay on HCC-2998 colon, above 25 µM. Also, the TGI in the assay with SNB-75 CNS, with OVCAR-3 ovarian, with HT29 colon, with TK-10 renal, in the assay on BT-549 breast and in the assay with M14 melanoma was above 25 µM throughout. For the same compound, the TGI in the assay with NCI-H522 lung, with SF-295 CNS, with HCT-15 colon and in the assay with HCC-2998 colon was above 25 µM throughout.

As to `Cc1cc(C)c2nc3nc(C)cc(C)c3c(N)c2c1`, the GI50 with SNB-75 CNS is 4.86 µM; in the assay with OVCAR-3 ovarian, 9.04 µM; in the assay on HT29 colon, 2.49 µM; in the assay with TK-10 renal, 3.34 µM; with BT-549 breast, 11 µM; with M14 melanoma it was 4.53 µM. For the same compound, the GI50 with NCI-H522 lung was 5.46 µM; in the assay on SF-295 CNS, 2.4 µM; with HCT-15 colon, 3.96 µM; with HCC-2998 colon, 9.61 µM. Further, the TGI worked out at 18.3 µM in the assay on SNB-75 CNS; 39.9 µM with OVCAR-3 ovarian; 13.6 µM with HT29 colon; 19.1 µM in the assay on TK-10 renal; 31.7 µM with BT-549 breast; 16.1 µM in the assay with M14 melanoma. For the same compound, the TGI with NCI-H522 lung turned out to be 22.6 µM; in the assay on SF-295 CNS, 12 µM; with HCT-15 colon it was 22.5 µM; in the assay with HCC-2998 colon, 22.5 µM.
